# pIC50: −log10 of the molar value.
# Target: TLR4 (toll-like receptor 4) (Homo sapiens, UniProt O00206)
# Assay: TLR4 ELISA on lysates of human PBMCs treated with AVR-25 for […] h, dose response
# Format: cell-based
# TLR4 (toll-like receptor 4), sequence (O00206 24-839): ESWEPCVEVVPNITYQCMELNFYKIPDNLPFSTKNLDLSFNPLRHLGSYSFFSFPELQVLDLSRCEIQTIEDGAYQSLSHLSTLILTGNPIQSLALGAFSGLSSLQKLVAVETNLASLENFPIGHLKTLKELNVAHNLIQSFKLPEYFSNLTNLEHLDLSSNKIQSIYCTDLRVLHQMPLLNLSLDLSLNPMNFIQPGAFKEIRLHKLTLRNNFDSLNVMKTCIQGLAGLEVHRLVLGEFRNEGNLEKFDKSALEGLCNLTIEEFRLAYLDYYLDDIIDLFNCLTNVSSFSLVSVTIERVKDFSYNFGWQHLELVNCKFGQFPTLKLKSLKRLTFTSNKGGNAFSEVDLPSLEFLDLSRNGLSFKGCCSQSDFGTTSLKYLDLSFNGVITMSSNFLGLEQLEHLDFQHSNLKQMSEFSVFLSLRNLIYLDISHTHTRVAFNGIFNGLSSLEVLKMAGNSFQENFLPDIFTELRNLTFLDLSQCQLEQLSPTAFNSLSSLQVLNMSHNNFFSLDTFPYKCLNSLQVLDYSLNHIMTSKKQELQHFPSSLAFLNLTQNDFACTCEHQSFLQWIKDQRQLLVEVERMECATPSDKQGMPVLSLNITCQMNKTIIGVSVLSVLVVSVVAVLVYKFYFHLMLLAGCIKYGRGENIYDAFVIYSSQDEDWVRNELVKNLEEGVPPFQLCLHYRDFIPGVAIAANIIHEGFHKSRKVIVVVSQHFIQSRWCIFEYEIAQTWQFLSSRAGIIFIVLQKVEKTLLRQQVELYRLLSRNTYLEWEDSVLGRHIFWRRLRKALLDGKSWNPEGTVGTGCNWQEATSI
smiles,measurement,value
"CC(=O)N[C@H]1[C@H](OC2CCCCC2)O[C@H](CO)[C@@H](O[C@@H]2O[C@H](CO)[C@@H](O)[C@H](O)[C@H]2NC(C)=O)[C@@H]1O [AVR-25, N-((2R,3R,4R,5S,6R)-5-(((2S,3R,4R,5S,6R)-3-acetamido-4,5-dihydroxy-6-(hydroxymethyl)tetrahydro-2H-pyran-2-yl)oxy)-2-(cyclohexyloxy)-4-hydroxy-6-(hydroxymethyl)tetrahydro-2H-pyran-3-yl)acetamide]",pIC50,6.82

# — PMC6393422, “Novel Chitohexaose Analog Protects Young and Aged mice from CLP Induced Polymicrobial Sepsis” (Scientific Reports, 2019)
